Measured values taken from US8603532B2, “Nanostructures for drug delivery” (priority 2008, dated 2013).
Where two headings read alike, the source gives them in different places.

Legend:
[1] = system: Male Sprague Dawley Rats; assay: Maximum tolerated dose (MTD) study, intravenous; type: in vivo; conditions: for Death: 3 rats; for dose tolerated by the rats / MTD: i.v.; for dose tolerated by the rats: survival; for MTD: 14 days monitoring
Text: The maximum tolerated dose (MTD) of chemotherapeutic agents may be a critical factor for achieving optimal therapeutic benefit. The effectiveness of chemotherapeutic agents is generally proportional to the dose of the agents at their targets; however, the dose may be limited by systemic toxicity. In this non-limiting example, the therapeutic effectiveness of a platinum(IV) prodrug was attempted to be increased by increasing the maximum tolerated dose (MTD) of the prodrug by using a polymeric nanoparticle drug delivery systems. Various doses of cisplatin, Pt(IV)-prodrug (compound 1 from Example 1), Pt—NP (from Example 1), or PLGA-PEG-NP (control, nanoparticles not comprising platinum complexes) were injected intravenously and the MTD was estimated based on the threshold at which all […] survived.
Male Sprague Dawley Rats were used for MTD determination with intravenous administration. All rats treated with plain nanoparticles tolerated these doses. In the Pt—NP group, rats receiving doses up to 40 mg/kg tolerated the dose, but two of three in the 50 and 60-mg/kg groups died. Only the dose of 20 mg/kg free cisplatin or Pt(IV)-prodrug were tolerated by the rats. To further define the MTD, overall toxicity was monitored for 14 days. As a sign of toxicity, the body weights of rats were measured.

[2] = system: PC3 cells; assay: In vitro cytotoxicity, MTT assay; type: cell-based, human; conditions: 72 h
Method: (§1) A series of in vitro cytotoxicity assays were performed to understand the anti-cancer properties of platinum(IV)-encapsulated nanoparticles, using human prostate cancer cells, and directly compared its efficacy to that of free cisplatin. The choice of the cancer cells was based on the presence of PSMA, as mentioned before. […] As shown in this figure, the Pt(IV)encapsulated polymeric nanoparticles containing PSMA aptamers on the surface (Pt—NP-Apt) were highly cytotoxic to the LNCaP cells, which up-regulate PSMA on the surface, giving an IC50 value of 0.03 μM. […] The PSMA^+ aptamer targeted Pt(IV)-encapsulated PLGA-b-PEG nanoparticles (Pt—Np-Apt) were 80 times more toxic in the PSMA LNCaP cells, indicating potential application of these nanoparticles in human prostate cancer.

[3] = system: PSMA+ LNCaP cells; assay: In vitro cytotoxicity, MTT assay; type: cell-based, human; conditions: 72 h
Method: as §1

[4] = 1 h post administration, literature value; cited from earlier work
[5] = Blood circulation and excretion studies; type: in vivo; conditions: rat, 2 mg/kg i.v., 1 h post administration
Method: Male Sprague Dawley rats were used in this study. Separate groups of animals received i.v. injections of Pt—NP (2 mg/kg) or Pt(IV)-prodrug (2 mg/kg) and were placed in metabolism cages. Blood was collected at predetermined time points in heparinized tubes. Whole organs or representative tissue samples were removed and weighed where necessary. Urine was collected for 24 h. Plasma was obtained from the blood samples by […]. Samples were analyzed for their platinum content using a Perkin Elmer Flameless Atomic Absorption Spectrophotometer.

[6] = Cyclic voltammetry, Pt(IV)/Pt(II) reduction potential; type: physicochemical
Method: The identity of the platinum species released from the polymeric nanoparticles was determined by ESI-MS. […] The redox potentials were also investigated for reduction of compound 1 at various pH values. […] NPs before reaching the nuclear DNA.

Substance “[cis-Pt(NH3)2Cl2] [cisplatin, reference compound]” has a Death ([1]; 5 mg/kg i.v.) of 0, a Death ([1]; 10 mg/kg i.v.) of 0 and a Death ([1]; 20 mg/kg i.v.) of 0. For the same substance, the Death ([1]; 40 mg/kg i.v.) was 3, the “dose tolerated by the rats” value [1] was 20 mg/kg and the MTD ([1]; rats) was 20 mg/kg. The IC50 [2] was 180 nM, the IC50 [3] was 2400 nM and the “platinum dose remaining in the systemic circulation” value [4] was 1.5%.
“c,c,t-[Pt(NH3)2(O2CCH2CH2CH2CH2CH2)2Cl2] [compound 1]” gave a Death ([1]; 5 mg/kg i.v.) of 0, a Death ([1]; 10 mg/kg i.v.) of 0 and a Death ([1]; 20 mg/kg i.v.) of 0. The Death ([1]; 40 mg/kg i.v.) was 2, the “dose tolerated by the rats” value [1] was 20 mg/kg and the MTD ([1]; rats) was 20 mg/kg. For the same substance, the body weight change ([1]; rats, up to 20 mg/kg, 14 days) was “did not show any weight loss”, the “platinum dose remaining in the systemic circulation” value [5] was 15.6% and the “Pt(IV)/Pt(II) couple, irreversible cyclic voltammetric response” value (“Pt(IV)/Pt(II) couple” for short) ([6]; 1:4 DMF-sodium phosphate buffer, pH 6.0) was roughly −0.243 V vs. NHE. The “Pt(IV)/Pt(II) couple” value ([6]; 1:4 DMF-sodium phosphate buffer, pH 7.4) was roughly −0.233 V vs. NHE and the “Pt(IV)/Pt(II) couple” value ([6]; MeCN-0.1 M TBAPF6) was roughly −0.805 V vs. NHE.
